Structures can show the parent of a compound that is named as a salt.
What was measured:
[1] = Dynamic moisture sorption (DMS) assessment; assay type: physicochemical; details: exposed to up to 90% RH
Description: A dynamic moisture sorption (DMS) assessment (also known as a moisture sorption-desorption profile) was performed for samples of the crystalline diacetate salt using a VTI atmospheric microbalance, SGA-100 system (VTI Corp., Hialeah, Fla. 33016). A sample size of approximately 10 mg was used and the humidity was set at the ambient value at the start of the analysis. A typical DMS analysis consisted of three scans: ambient to 2% relative humidity (RH), 2% RH to 90% RH, 90% RH to 5% RH at a scan rate of 5% RH/step. The mass was measured every two minutes and the RH was changed to the next value (+/−5% RH) when the mass of the sample was stable to within 0.01% for 5 consecutive points.

[2] = Differential scanning calorimetry (DSC), thermal decomposition; assay type: physicochemical; details: heating ramp 10° C./min
Description: DSC was performed using a TA Instruments Model Q-10 module with a Thermal Analyst controller, and data were collected and analyzed using TA Instruments Thermal Solutions software. A sample of about 1 mg of the crystalline diacetate salt was accurately weighed into an aluminum pan with lid, and evaluated using a linear heating ramp of 10° C./min from ambient temperature to approximately 300° C. The DSC cell was purged with dry nitrogen during use. A representative DSC trace for this salt is shown in FIG. 2 and depicts one transition at about 114° C., no thermal decomposition below about 160° C., and maximum endothermic heat flow at about 112° C.

[3] = target: T1, M3 muscarinic receptor subtype (Homo sapiens, UniProt P20309); assay: Radioligand binding assay ([3H]-NMS displacement, CHO cell membranes); details: tested in this or a similar assay
T1 construct: expressed in transfected cells; crude membranes prepared in house
T1 sequence (P20309 whole entry): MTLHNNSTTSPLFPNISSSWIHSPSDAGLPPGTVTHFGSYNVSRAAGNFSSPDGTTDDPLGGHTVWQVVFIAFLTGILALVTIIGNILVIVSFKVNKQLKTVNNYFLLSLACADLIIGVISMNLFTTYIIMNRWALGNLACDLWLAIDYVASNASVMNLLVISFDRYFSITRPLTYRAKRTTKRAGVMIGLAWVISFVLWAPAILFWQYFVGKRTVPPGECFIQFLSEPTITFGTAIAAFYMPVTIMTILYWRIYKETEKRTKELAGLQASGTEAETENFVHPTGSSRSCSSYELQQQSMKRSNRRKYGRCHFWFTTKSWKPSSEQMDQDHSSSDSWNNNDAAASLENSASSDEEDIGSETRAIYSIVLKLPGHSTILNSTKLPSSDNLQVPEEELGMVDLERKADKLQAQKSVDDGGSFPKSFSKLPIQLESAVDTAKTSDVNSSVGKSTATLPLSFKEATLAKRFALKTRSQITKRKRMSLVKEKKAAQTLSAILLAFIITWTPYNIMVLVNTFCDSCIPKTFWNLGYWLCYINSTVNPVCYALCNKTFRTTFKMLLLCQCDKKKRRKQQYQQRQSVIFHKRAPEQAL
Description: CHO cell lines stably expressing cloned human hM1, hM2, hM3 and hM4 muscarinic receptor subtypes, respectively, were grown to near confluency in medium consisting of HAM's F-12 supplemented with 10% FBS and […]. The cells were grown in a 5% CO2, 37° C. incubator and lifted with 2 mM EDTA in dPBS. Cells were collected by 5 minute centrifugation at 650×g, and cell pellets were either stored frozen at −80° C. or membranes were prepared immediately. For membrane preparation, cell pellets were resuspended in lysis buffer and homogenized with a Polytron PT-2100 tissue disrupter (Kinematica AG; 20 seconds×2 bursts). Crude membranes were centrifuged at 40,000×g for 15 minutes at 4° C. […] The protein concentration of the membrane suspension was determined by the method described in Lowry, O. et al., […] 193:265 (1951). […]
Radioligand binding assays were performed in 96-well microtiter plates in a total assay volume of 100 μL. […] Filter plates were rinsed three times with wash buffer (10 mM HEPES) to remove unbound radioactivity. […] The plates were then counted in a PerkinElmer Topcount liquid scintillation counter (PerkinElmer Inc., Wellesley, Mass.). Binding data were analyzed by nonlinear regression analysis with the GraphPad Prism Software package (GraphPad Software, Inc., San Diego, Calif.) using the one-site competition model. […]

CN(CCN1CCC(OC(=O)Nc2ccccc2-c2ccccc2)CC1)C(=O)c1cccc(C(=O)NCCNCc2ccc(O)cc2)c1 [crystalline dipropionate salt, Biphenyl-2-ylcarbamic Acid 1-[2-({3-[2-(4-Hydroxybenzylamino)ethylcarbamoyl]benzoyl}methylamino)ethyl]piperidin-4-yl Ester]
weight gain in DMS (reversible sorption/desorption profile) [1]: less than 11% | no thermal decomposition below (DSC trace) [2]: ≥ 150 °C

CN(CCN1CCC(OC(=O)Nc2ccccc2-c2ccccc2)CC1)C(=O)c1cccc(C(=O)NCCNCc2ccc(O)cc2)c1 [crystalline diacetate salt, biphenyl-2-ylcarbamic acid 1-[2-({3-[2-(4-hydroxybenzylamino)ethylcarbamoyl]benzoyl}methylamino)ethyl]piperidin-4-yl ester]
weight gain in DMS (reversible sorption/desorption profile) [1]: less than 18% | no thermal decomposition below (DSC trace) [2]: ≥ 160 °C

CN(CCN1CCC(OC(=O)Nc2ccccc2-c2ccccc2)CC1)C(=O)c1cccc(C(=O)NCCNCc2ccc(O)cc2)c1 [crystalline monooxalate salt, Biphenyl-2-ylcarbamic Acid 1-[2-({3-[2-(4-Hydroxybenzylamino)ethylcarbamoyl]benzoyl}methylamino)ethyl]piperidin-4-yl Ester]
weight gain in DMS (reversible sorption/desorption profile) [1]: less than 14% | no thermal decomposition below (DSC trace) [2]: ≥ 150 °C

CN(CCN1CCC(OC(=O)Nc2ccccc2-c2ccccc2)CC1)C(=O)c1cccc(C(=O)NCCNCc2ccc(O)cc2)c1 [Example 1, Biphenyl-2-ylcarbamic Acid 1-[2-({3-[2-(4-Hydroxybenzylamino)ethylcarbamoyl]benzoyl}methylamino)ethyl]piperidin-4-yl Ester]
Ki [3]: < 5 nM
